From patent publication US20250200763A1, “4D FLUORESCENCE MICROSCOPY ORGANELLE NETWORK TRACKING” (THE REGENTS OF THE UNIVERSITY OF CALIFORNIA, priority 2022, published 2025)
Entries after “also recorded” stand apart in the source; their conditions may differ.

Legend:
[1] = system: mitochondrial network in hiPSCs; test: Network reachability: random walk / material diffusion simulation on tracked temporal mitochondrial networks; assay type: cell-based, human; conditions: drug-treated, control 0.18
Protocol: To quantify transport across the 4D mitochondrial network, a random walk on the tracked temporal mitochondrial networks was simulated and the process was measured in the form of network reachability (see “Material diffusion simulation on temporal mitochondrial networks”). Reachability for a node indicates how easily can material/information reach this node from various parts of the overall network, via the time respecting paths defined by the network tracking.
Diffusion simulation was used on temporal dynamic mitochondrial network to understand the flow of material in mitochondrial networks. To calculate global reachability, we initiate a virtual token at every node of the mitochondrial network at the first timestep. Each token is labeled by the source node from which it originated. At every timestep, each node duplicates the tokens it currently has, and transfers them to the connected neighbors. At the end of the simulation, the global reachability for each node is quantified by the number of unique tokens at that node, corresponding to the number of source nodes this node can reach.
FIGS. 25A and 25B illustrate schematics for material diffusion simulation on temporal network. FIG. 25A illustrates the global reachability simulation. From each node, material can diffuse into the neighboring nodes or stay in the source node. All possible diffusion pathways over time are marked with an arrow. Time is depicted from left to right. Arrows in different thicknesses 2502, 2504, 2506, 2508, 2510, 2512 indicate representative simulation scenarios. After four timesteps, the target node labeled with X has accumulated three tokens (through the transport arrows). FIG. 25B illustrates the calculation for betweenness centrality used for determining the central nodes.
Drug Treatments: All drugs were dissolved in DMSO to make a stock solution and diluted in PBS to prepare a 100× working stock. Cells were treated with oligomycin (20 μM, 2 hr), nocodazole (5 uM, 30 min), and MDIVI-1 (10 μM, 12 hr) without wash. […]

[2] = system: mitochondrial network in hiPSCs; test: Mitochondrial temporal network remodeling (mean degree difference, temporal intersection) from MitoTNT 4D tracking of LLSM data; assay type: cell-based, human; conditions: drug-treated; for mean degree difference (DD): control DD 0.28, low DD = little remodeling; for temporal intersection (TI): control TI 0.58, low TI = drastic remodeling
Protocol: To quantify mitochondrial network remodeling, the mean degree difference (DD) and the temporal intersection (TI) were calculated. A low DD indicates a low rate of nodes breaking off from their neighbors and reconnecting with other nodes. Inversely, a low TI implies that the network is very dynamic and does undergo drastic remodeling. […] In contrast, when treated with oligomycin, it was observed a 0.52 DD and 0.44 TI indicating a high level of network remodeling. Cytoskeleton influences drive network remodeling events were hypothesized.
Human induced pluripotent stem cell (hiPSC) culture: All studies involving hiPSCs were performed under approval from the University of California San Diego IRB/ESCRO committee. WTC hiPSCs expressing the CAAX domain of K-ras tagged with m TagRFP-T were created at the Allen Institute for Cell Science and obtained through the UCB Cell Culture Facility. hiPSC colonies were expanded on dishes coated with growth factor reduced Matrigel (Corning, 354230) in mTeSR1 (Stemcell Technologies, 85850) containing 1% penicillin/streptomycin (Gibco, 15140122). Colonies were washed with DPBS (Gibco, 14190144) and detached with accutase (Stemcell Technologies, 07920) before plating onto imaging dishes. Cultures were tested routinely for mycoplasma.
Drug Treatments: All drugs were dissolved in DMSO to make a stock solution and diluted in PBS to prepare a 100× working stock. Cells were treated with oligomycin (20 μM, 2 hr), nocodazole (5 uM, 30 min), and MDIVI-1 (10 μM, 12 hr) without wash.
Live cell imaging: 371 CAAX-RFPhiPSCs were stained with 100 nM Mito Tracker Green FM (Invitrogen, M7514) for 30 min prior to imaging. Cells were plated onto 25 mm MatTek dishes and imaged in phenol-red free mTeSR1 (Stemcell Technologies, 85850). Cells were kept under 5% CO2 and 37 degrees C. For imaging, Zeiss LLSM 7 was used with 10×N.A. 0.4 illumination objective lens and 48×375 N.A. 1.0 detection objective lens. Images were acquired in two channels: green channel with excitation at 488 nm and emission at 512 nm; red channel with excitation at 561 nm and emission at 597 nm. For both channels we used 18% laser power and 8 ms exposure. The illumination light-sheet was the Sinc3 beam with length 15 μm, thickness 650 nm and no side lobes. The volume size was 2048×448×57 pixels or 296.94×64.96×8.12 μm with isotropic pixel size 145 nm after coverglass transformation. Images were saved with bit depth 16 bits. For each region, 93 frames were imaged with frame rate 3.26 s per volume for total 5 min. For LLSM data processing, the Lattice Lightsheet 7 Processing Module on ZEN Blue was used for deconvolution, deskew, and cover glass transformation. Further processing is then done using MitoGraph and MitoTNT.

[3] = system: mitochondrial network in hiPSCs; test: Fission/fusion preference with respect to fragment size (normalized network fragment size difference); assay type: cell-based, human; conditions: hiPSCs with disrupted microtubules, vs DMSO control
Protocol: To detect fission and fusion events in the network, a sliding-window approach is applied to identify nodes that undergo persistent structural changes as opposed to transient segmentation variations. First, the fragment indices for each node are recorded for the half win size frames before and after the current frame, to form the fragment list. Second, for each network edge, the fragment lists for the connected nodes are compared. Fission will be declared if the fragment lists before the current frame are strictly identical, as well as the fragment lists after the current frame are strictly non-overlapping. Since fusion events can be considered as fission events reversed in time, the opposite criterion is used for fusion detection. In the case that multiple remodeling nodes are located in proximity (less than 5 edges away), the nodes are grouped into a single fission/fusion site. At last, the center of the sliding window is moved to the next frame and the computation is iterated.
To provide mechanistic insights into network remodeling, the motility between randomly selected nodes and nodes undergoing fission and fusion was compared. […] Based on node tracking, each individual mitochondrial network fragment can be tracked as shown in FIG. 17C and the selectivity of fission and fusion events recorded in terms of fragment size. […]

[4] = system: mitochondria networks in cells; test: Distribution of graph size ratio for fission/fusion events (preliminary 4D network tracking); assay type: cell-based; conditions: microtubule-disrupted cells vs DMSO control cells
Protocol: Preliminary results. 4D mitochondrial network tracking and fission/fusion statistics analysis indicate a selection bias in fission and fusion reaction in normal cells, which is not present when cells are treated with nocodazole. FIGS. 3A and 3B show data plots depicting a distribution of graph size ratio for fission/fusion events. Depicted is the normalized mitochondria fragment size immediately after or before fission or fusion events, respectively. Graph size ratio for a particular mitochondria undergoing fission/fusion computed as the size of the mitochondria network normalized by the total size of all mitochondria networks involved. Values close to 0 and 1 correspond to small and large mitochondria relative to the total size. The metric is calculated and plotted for every fragment undergoing detected fission/fusion events. FIGS. 3A and 3B illustrate histogram bars and gaussian-smoothed curves for fission and fusion. The gaussian-smoothed curves 310 and 330 are for fission and the gaussian-smoothed curves 320 and 340 are for fusion.

[5] = system: mitochondrial network in hiPSCs; test: Mitochondrial network motility and motion correlation analysis by node tracking; assay type: cell-based, human
From the text: To measure the network motility of the mitochondrial network, mean-square-displacements (MSDs) vs. time delay curves are computed following previous works. The node ensemble averaged MSDs are plotted for control and oligomycin (See FIGS. 24A and 24B). The MSDs for single tracks are plotted for control and oligomycin (See FIGS. 24C and 24D). Around 80% of the nodes have a coefficient of determination for linear fit greater than 0.8 (see FIG. 15F). To map diffusivity onto mitochondrial nodes, the network nodes are firstly chosen at a center frame. Next, the node track coordinates 10 frames before and 10 frames after the center frame are collected. In a last step, the MSDs are computed at various time delays in this time window to determine the diffusivity of each node.
To compute vector correlation, the displacement vector is firstly obtained for a selected node at a selected frame. Next, the vector correlation is computed, as well as the vectors for the selected node at timepoints 1 frame before and after the selected frame. The vector correlation is computed between this vector and vectors for the nodes directly connected to it and given by the dot product of two vectors, divided by the square of the norm of the longer vector. The final correlation value for the selected node at the selected time is reported as the average of these two values.
To further investigate network branch motility, tracking vectors correlated between adjacent nodes on the same segment, and between the same node at consecutive frames. […] In contrast, temporal correlation between frames is predominantly zero (random motion) to slightly negative (oscillating motion), while interspersed with short period of positive values (directional motion) as shown in FIG. 16E. […] In FIG. 16F, the correlation along skeleton 1610 and the correlation in time 1620 are shown. The ATP synthase inhibitor oligomycin that induces mitochondrial fragmentation was employed to investigate if motion correlation findings are dependent upon network morphologies as shown in FIGS. 16G and 16H. […]

| SMILES | average reachability of network nodes [1] | mean degree difference (DD) [2] | temporal intersection (TI) [2] | asymmetric fission/fusion events [3] | distribution of graph size ratio for fission/fusion events (selection bias) [4] | motility of drug induced fragments ([5]; vs DMSO control) | spatial motion correlation (along skeleton) ([5]; vs control) | temporal motion correlation (between frames) ([5]; vs control) |
| --- | --- | --- | --- | --- | --- | --- | --- | --- |
| COc1cc(-n2c(=S)[nH]c3ccccc3c2=O)c(Cl)cc1Cl [mdivi-1] | 0.35 | – | – | – | – | – | – | – |
| COC(=O)Nc1nc2ccc(C(=O)c3cccs3)cc2[nH]1 [nocodazole] | 0.29 | did not induce drastic changes | did not induce drastic changes | less pronounced but preserved; also recorded: a decrease in asymmetric fission/fusion | not present; also recorded: flatter distribution | – | – | – |
| CC[C@H]1/C=C/C=C/C[C@@H](C)[C@H](O)[C@@](C)(O)C(=O)[C@@H](C)[C@H](O)[C@@H](C)C(=O)[C@@H](C)[C@H](O)[C@@H](C)/C=C/C(=O)O[C@@H]2[C@H](C)[C@H](CC1)O[C@]1(CC[C@H](C)[C@H](C[C@@H](C)O)O1)[C@H]2C [oligomycin] | 0.64 | 0.52 | 0.44 | – | – | move considerably faster compared to control | dropped | remains similar |
